“Also recorded” adds a separate entry of the source. Where a SMILES comes first, the peptide text is derived from it.
Tests used:
[1] = tested on: A549 cells; assay: CyQuant cytotoxicity and proliferation assay; assay type: cell-based, human; details: 48 hours
Experimental: Cells were seeded at 2.5×10^4 cells/well and grown in 96 well plates in the presence of 0−1.5×10^−5 M cypate conjugated peptides for 24 or 48 hours. Cell proliferation was measured using the CyQuant proliferation assay from Molecular Probes (Eugene, Oreg.) per the manufacturer's protocol. Briefly, after incubation the microplate was inverted to remove the media and frozen at −70° C. overnight. The microplate was thawed at room temperature and 200 μL of the CyQuant GR dye/cell-lysis buffer was added to each well. […]
Because the Cyquant assay is based on the adherence of a dye to nucleic acids, the assay is a measure of both proliferative and cytotoxic effects.

[2] = tested on: αv, β3, αvβ3 and αIIBβ3 integrins in A549 cells; assay: Immunostaining of integrins in treated and untreated cells; assay type: cell-based, human; details: relative to PBS-treated cells
Experimental: To confirm the receptors that mediate internalization of cypate-GRD in A549 cells, the levels of αv, αIIb, β3, αvβ3, and αIIBβ3 in treated and untreated cells were assessed by immunostaining. Cells were grown on Lab-Tek slides and fixed in 3% paraformaldehyde in PBS for 30 min. After washing three times for 5 min each in PBS, the cells were blocked to mask nonspecific binding sites with PBS containing 1% normal goat serum (blocking solution) for 1 h. Primary antibodies of mouse anti-human αv or β3 integrin antibodies (Chemicon International, Temecula, Calif.) or antihuman αIIBβ3 (GeneTex, Inc., South Bend, Ind.) diluted 1:500 (v/v) in blocking solution were added to each well and incubated overnight at 4° C. After washing three times for 10 min each in PBS, cells were incubated for 1 h with diluted biotinylated-anti-mouse IgG antibody in blocking solution. After washing, antigens were detected with avidin-horseradish peroxidase conjugate and diamino benzidine (Vector Laboratories, Burlingame, Calif.). Slides were counterstained with Mayers Hematoxylin, and the cover slips were mounted for microscopic examination.

[3] = tested on: A549 cells; assay: MTT cytotoxicity assay; assay type: cell-based, human; details: up to 100 μM solution in 20% aqueous DMSO, 24 h
Experimental: Cytotoxicity assays were performed using the 3-(4,5-dimethylthiazol-2-yl)-2,5-diphenyltetrazolium bromide (MTT) based in vitro toxicology assay kit (Sigma-Aldrich, St. Louis, Mo.) per the manufacturer's protocol. Briefly, A549 cells were grown in 96 well plates to 75% confluence in phenol red free Dulbecco's Modified Eagle's Medium supplemented with 10% fetal calf serum, 100 units/mL penicillin and 100 units/mL streptomycin. A concentration range (0-125 μM) of the compound to be tested was added to each well in a final volume of 100 μL/well and the cells were incubated for 24 h at 37° C. in 5% CO2. After incubation, the medium was removed and replaced with 100 μL/well phenol red free medium. Absorbances at 570 nm and 690 nm were measured. MTT (10 μL) was added to each well and the cells were incubated for 2 h. […] Absorbance at 570 nm and 690 nm were measured. The Δ570 and Δ690 were determined by taking the difference of the absorbances before and after the addition of MTT. The percent of viable cells, B, was determined according to the formula:
[formula] where λΔ570 was the absorbance of formazan crystals at 570 nm and λΔ690 was background at 690 nm.
The conventional MTT protocol typically involves background subtraction at 690 nm from the absorbance at 570 nm. […] To circumvent this problem, the background absorbance at 690 nm was adjusted by running parallel experiments with and without MTT. […]

[4] = tested on: β3 knockout VSMC cells; assay: Internalization in integrin β3 knock-out vascular smooth muscle cells; assay type: cell-based, mice; details: 1 μM, 1 hr, 37° C.
Experimental: (§1) Having shown that cypate-GRD preferentially binds to β3 integrin in ABI-positive cells, it was hypothesized that it would not internalize in β3 knockout cells. Vascular smooth muscle cells (VSMCs) from the aortas of β3^−/−apoE^−/− and β3^+/+apoE^−/− mice were provided by Dr. Clay F. Semenkovich (Washington University Medical School in St. Louis, Mo.). VSMCs were maintained at 37° C. in humidified atmosphere containing 5% CO2 in Dulbecco's modified Eagle's medium (DMEM) containing 10% fetal bovine serum, 4 mmol/L L-glutamine, 1 mM sodium pyruvate, 100 U/ml penicillin, 0.25 μg/ml amphotericin, 100 μg/ml streptomycin. The internalization of cypate-GRD and cyclic cypate-RGD were compared in β3 knockout and wild-type VSMC cells, essentially as described above.

[5] = tested on: U87 cells; assay: Cell uptake and internalization (Example 3); assay type: cell-based, human; details: within an hour of incubation
Experimental: (§2) The ABI-positive cells were incubated with cypate or cypate-peptide conjugates at 37° C. for different time points. A549 cells were grown as detailed above. The human glioblastoma cell line, U87, and the human embryonic kidney cell line, HEK, were purchased from ATTC. U87 and HEK cells were maintained in minimum essential medium (MEM) with 2 mM L-glutamine and Earle's BSS adjusted to contain 1.5 g/L sodium bicarbonate, 0.1 mM nonessential amino acids, and 1.0 mM sodium pyruvate, with 10% fetal calf serum, 100 units/mL penicillin, and 100 units/mL streptomycin. Cells were grown on Lab-Tek slides. The medium was replaced and cells were incubated for various times up to 4 h at 37° C. in the presence of 1 μM of the dye conjugated peptides. For fluorescence microscopy, cells were visualized with an Olympus BX61W1 microscope using 775/50 excitation, 845/55 emission. For subcellular localization studies, 25 nM mitotracker green or 50 nM lysotracker red from Molecular Probes (Eugene, Oreg.) was added during the last 15 min or 60 min of incubation, respectively. […] Relative fluorescence was determined for five different areas of each experimental condition using the Slidebook software, and the results were averaged. The average relative fluorescence for each condition was normalized to cells treated with Cyp-GRD peptide.

[6] = tested on: HEK cells; assay: Cell uptake and internalization (Example 3); assay type: cell-based, human; details: within an hour of incubation
Experimental: as §2

[7] = tested on: A549 cells; assay: Cellular internalization and blocking studies by fluorescence microscopy (Example 1); details: 37° C.; for translocation into the nucleus: A549 cells
Experimental: Cells were grown on LabTek microscope slides, as described above. The medium was removed and cells were incubated at 4° C. or 37° C. in PBS containing 1 μM of one of the peptide conjugates for 30 min. […] The cells were further incubated at 37° C. for 4 h and visualized with a Zeiss LSM510 system using a 633 laser and an LP650 filter.
For antibody blocking studies, cells were preincubated for 30 min at room temperature with 10 μg/ml function-specific monoclonal antibodies anti-αv or anti-β3 integrin subunits (Molecular Probes; Eugene Oreg.) before addition of 1 μM of a cypate-peptide conjugate. For nuclear staining, 0.1 μM TOPO-1 (Molecular Probes) was mixed with mounting medium and applied to the cells. All cells were visualized on an Olympus FV1000 microscope equipped with the appropriate bandwidth filters for cypate conjugates (or cypate-3 conjugates) and TROPO-1.

[8] = tested on: VSMC wild-type cells; assay: Internalization in wild-type vascular smooth muscle cells; assay type: cell-based, mice; details: 1 μM, 1 hr, 37° C.
Experimental: as §1

**Q.** Which “cytotoxicity (CyQuant), longer treatment” value [1] does the source give for CC1(C)C(/C=C/C=C/C=C/C=C2/N(CCC(=O)NCC(=O)N[C@@H](CCCNC(=N)N)C(=O)N[C@@H](CC(=O)O)C(=O)N[C@@H](CO)C(=O)N3CCC[C@H]3C(=O)N[C@@H](CCCCN)C(=O)O)c3ccc4ccccc4c3C2(C)C)=[N+](CCC(=O)O)c2ccc3ccccc3c21 [Cyp-GRD, Cypate-GRDSPK] (HELM PEPTIDE1{[CC1(C)C(/C=C/C=C/C=C/C=C2/N(CCC(=O)[*:2])c3ccc4ccccc4c3C2(C)C)=[N+](CCC(=O)O)c2ccc3ccccc3c21].G.R.D.S.P.K}$$$$V2.0) here?
**A.** not

**Q.** And the “staining of A549 cells with anti-αv, anti-β3, anti-αvβ3 and anti-αIIBβ3 antibodies after preincubation” value [2]?
**A.** reduced staining

**Q.** And the “cell proliferation or cytotoxicity (percent of viable cells, MTT)” value [3]?
**A.** did not induce cell proliferation or cytotoxicity; also recorded: not cytotoxic

**Q.** What about the “internalization in β3 knockout cells” value [4] of the same compound?
**A.** not observed

**Q.** And the “internalization in U87 cells” value [5]?
**A.** internalization

**Q.** What about the “internalization in HEK cells” value [6] of the same compound?
**A.** internalization

**Q.** What about the “internalization in A549 cells” value ([7]; 1 μM) of the same compound?
**A.** internalized

**Q.** And the “translocation into the nucleus” value [7]?
**A.** did not translocate to the nucleus

**Q.** What about the “translocation into the nucleus” value ([7]; listed as cypate-GRD) of the same compound?
**A.** not localized in the nucleus

**Q.** And the “internalization in VSMC wild-type cells” value [8]?
**A.** internalized

Source: US8053415B2, “Compounds having RD targeting motifs” (Washington University in St. Louis, priority 2005, dated 2011)
